Key:
Experiment in all cases: relative viability (nuclei count vs DMSO), 5 days (fraction); higher = more cells survive
[1] = compound: C[C@@]1(C(=O)Nc2ccc(F)nc2)CCCN1c1nc(Nc2cc(C3CC3)n[nH]2)c2cccn2n1 + N=C(N)NC(=N)NCCc1ccccc1 [Phenformin] (partner 250 µM)
In short: (§1)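 Lung cancer cell lines, seeded in 1536-well plates, were treated the following day by pin tool with a single drug or with five library-drug doses (not always all listed) in √10 steps on top of a fixed anchor-drug dose. Cells were fixed and nuclei stained in one step after 5 days, and nuclei were counted. Relative viability is the nuclei count for treated wells divided by that for vehicle wells, reported as medians of duplicate plates.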

Motesanib + Pemetrexed = compound: CC1(C)CNc2cc(NC(=O)c3cccnc3NCc3ccncc3)ccc21 [Motesanib] + Nc1nc2[nH]cc(CCc3ccc(C(=O)N[C@@H](CCC(=O)O)C(=O)O)cc3)c2c(=O)[nH]1 [Pemetrexed] (partner 0.2 µM)
In short: as §1

Motesanib + Navitoclax = compound: CC1(C)CNc2cc(NC(=O)c3cccnc3NCc3ccncc3)ccc21 [Motesanib] + CC1(C)CCC(c2ccc(Cl)cc2)=C(CN2CCN(c3ccc(C(=O)NS(=O)(=O)c4ccc(N[C@H](CCN5CCOCC5)CSc5ccccc5)c(S(=O)(=O)C(F)(F)F)c4)cc3)CC2)C1 [Navitoclax] (partner 0.5 µM)
In short: as §1

Motesanib + Bortezomib = compound: CC1(C)CNc2cc(NC(=O)c3cccnc3NCc3ccncc3)ccc21 [Motesanib] + CC(C)C[C@H](NC(=O)[C@H](Cc1ccccc1)NC(=O)c1cnccn1)B(O)O [Bortezomib] (partner 0.002 µM)
In short: as §1

| Cell Line | relative viability ([1]; first compound 0.04 µM) | relative viability ([1]; first compound 0.1265 µM) | relative viability ([1]; first compound 0.4 µM) | relative viability ([1]; first compound 1.265 µM) | relative viability (Motesanib + Pemetrexed; first compound 0.01 µM) | relative viability (Motesanib + Pemetrexed; first compound 0.03162 µM) | relative viability (Motesanib + Pemetrexed; first compound 0.1 µM) | relative viability (Motesanib + Pemetrexed; first compound 0.3162 µM) | relative viability (Motesanib + Pemetrexed; first compound 1 µM) | relative viability (Motesanib + Navitoclax; first compound 0.01 µM) | relative viability (Motesanib + Navitoclax; first compound 0.03162 µM) | relative viability (Motesanib + Navitoclax; first compound 0.1 µM) | relative viability (Motesanib + Navitoclax; first compound 0.3162 µM) | relative viability (Motesanib + Navitoclax; first compound 1 µM) | relative viability (Motesanib + Bortezomib; first compound 0.01 µM) | relative viability (Motesanib + Bortezomib; first compound 0.03162 µM) | relative viability (Motesanib + Bortezomib; first compound 0.1 µM) | relative viability (Motesanib + Bortezomib; first compound 0.3162 µM) | relative viability (Motesanib + Bortezomib; first compound 1 µM) |
| --- | --- | --- | --- | --- | --- | --- | --- | --- | --- | --- | --- | --- | --- | --- | --- | --- | --- | --- | --- |
| 201T | 0.346 | 0.355 | 0.32 | 0.36 | 0.307 | 0.326 | 0.318 | 0.296 | 0.342 | 1.2 | 1.21 | 1.21 | 1.19 | 1.2 | 1.05 | 1.07 | 1.08 | 1.17 | 1.08 |
| A549 | 0.131 | 0.155 | 0.101 | 0.281 |  |  |  |  |  | 1.19 | 1.23 | 1.17 | 1.34 | 1.32 |  |  |  |  |  |
| A-427 | 0.341 | 0.265 | 0.229 | 0.211 | 0.963 | 0.912 | 0.963 | 0.992 | 0.972 | 1.01 | 0.989 | 1.06 | 1.02 | 1.02 | 1.03 | 0.956 | 0.973 | 0.969 | 1.05 |
| ABC-1 | 0.182 | 0.211 | 0.216 | 0.216 |  |  |  |  |  |  |  |  |  |  | 0.282 | 0.341 | 0.221 | 0.284 | 0.292 |
| BEN | 0.291 | 0.229 | 0.272 | 0.281 | 0.539 | 0.774 | 0.73 | 0.582 | 0.749 | 0.0507 | 0.0585 | 0.0627 | 0.0938 | 0.0672 | 0.696 | 0.793 | 0.869 | 0.861 | 0.935 |
| CAL-12T | 0.575 | 0.507 | 0.464 | 0.207 | 1.17 | 1.17 | 1.19 | 1.16 | 1.08 | 1.34 | 1.47 | 1.3 | 1.24 | 1.28 |  |  | 0.906 | 1.16 | 0.926 |
| COR-L23 | 0.454 | 0.407 | 0.406 | 0.241 | 0.186 | 0.198 | 0.187 | 0.197 | 0.184 | 1.01 | 0.936 | 1.08 | 1.06 | 0.972 | 1.01 | 0.974 | 1.04 | 1.11 | 0.914 |
| COR-L 105 | 0.422 | 0.368 | 0.346 | 0.393 | 1.19 | 0.96 | 1.34 | 1.12 | 1.33 | 1.01 | 0.805 | 0.853 | 0.818 | 0.851 | 0.873 | 1.01 | 0.939 | 1.02 | 0.785 |
| Calu-6 |  |  |  |  |  |  |  |  |  | 0.877 | 0.748 | 0.852 | 0.758 | 0.76 | 0.896 | 1.04 | 0.926 | 1.05 | 0.889 |
| ChaGo-K-1 | 0.403 | 0.283 | 0.296 | 0.4 | 0.262 | 0.249 | 0.227 | 0.235 | 0.237 |  | 0.691 | 0.862 | 1.03 | 1.21 |  | 0.666 | 0.841 | 0.976 | 1.11 |
| EBC-1 |  |  |  |  |  |  |  |  |  | 0.48 | 0.419 | 0.377 | 0.47 | 0.417 | 0.637 | 0.56 | 0.557 | 0.537 | 0.559 |
| EKVX | 0.204 | 0.215 | 0.218 | 0.221 | 0.414 | 0.377 | 0.368 | 0.394 | 0.406 | 0.88 | 1.11 | 1.06 | 0.989 | 0.961 | 1.1 | 1.19 | 1.04 | 1.14 | 1.06 |
| EMC-BAC-2 | 0.472 | 0.437 | 0.399 | 0.313 | 0.412 | 0.408 | 0.471 | 0.412 | 0.524 | 1.18 | 1.15 | 1.22 | 1.19 | 1.13 | 1.03 | 1.01 | 1.02 | 1.07 | 1.08 |
| EPLC-272H | 0.315 |  | 0.251 | 0.275 | 0.656 | 0.285 | 0.254 | 0.273 | 0.243 | 1.16 | 0.905 | 1.3 | 1.04 | 1.26 | 0.858 | 0.832 | 0.925 | 0.601 | 1 |
| H3255 | 0.298 | 0.372 | 0.346 | 0.332 | 0.552 | 0.59 | 0.602 | 0.589 | 0.587 | 0.507 | 0.603 | 0.544 | 0.506 | 0.529 | 0.714 | 0.733 | 0.637 | 0.936 | 0.799 |
| HARA | 0.431 | 0.386 | 0.395 | 0.442 | 0.194 | 0.207 | 0.128 | 0.185 | 0.212 | 1.11 | 1.18 | 1.21 | 1.2 | 1.22 | 1.06 | 1.19 | 1.21 | 1.11 | 1.11 |
| HCC-15 | 0.387 | 0.209 | 0.27 | 0.259 | 0.212 | 0.203 | 0.188 | 0.179 | 0.202 | 0.69 | 0.718 | 0.713 | 0.773 | 0.748 | 0.97 | 0.968 | 0.886 | 1.16 | 1.07 |
| HCC-44 | 0.178 | 0.116 | 0.134 | 0.0862 | 0.656 | 0.653 | 0.788 | 0.724 | 0.605 | 0.986 | 0.96 | 0.994 | 1.04 | 0.997 | 0.905 | 0.877 | 0.994 | 0.974 | 0.885 |
| HCC-78 | 0.798 | 0.452 | 0.346 | 0.319 | 0.902 | 0.897 | 0.858 |  | 0.906 | 0.817 | 0.862 | 0.825 | 0.818 | 0.947 | 0.44 | 0.375 | 0.667 | 0.549 | 0.385 |
